Measurements from patent US11122997B2, “Modulating the aryl hydrocarbon receptor system to treat major depressive disorder” (Mayo Foundation for Medical Education and Research, priority 2015, dated 2021).

What was measured:
U251 glioma cells = experiment: Ketamine treatment of U251 glioma cell culture, mRNA (RT-qPCR) and protein (Western blot) levels; format: cell-based, human; conditions: U251 glia
Protocol: (§1) Lysates obtained from cells subjected to knockdown or overexpression were used to isolate total RNA (Zymo Research). The purity of the extracted RNA samples was assessed using a Nanodrop instrument (Thermo Scientific). All samples had acceptable A260/A280 ratios. AHR, ARNT, AHRR, IDO1, and TDO2 mRNAs levels were quantified by reverse transcription quantitative PCR (RT-qPCR) using a one step RNA-to-Ct™ kit (Life Technologies). The kit contains reagents for converting RNA to cDNA, followed by primer-specific amplification of the desired mRNA (in this case, AHR, ARNT, AHRR, IDO1, and TDO2). GAPDH was used as a reference gene. The quantification of these mRNAs was carried out by employing the ΔΔCt method as described elsewhere (Ingle et al., Cancer Discovery 3(7):812-825, 2013).
(§2) Cell lysates obtained after transfections and from LCLs were subjected to Western immunoblotting to detect levels of AHR, AHRR, ARNT, TDO2, and IDO1 proteins. Briefly, equal amounts of protein (as determined by the BCA protein assay) were loaded onto premade Criterion gels (Bio-Rad) and run for 1 hour at 180V. Proteins from the gels were electrophoretically transferred onto PVDF membranes and blocked at room temperature for 1 hour with 5% non-fat milk dissolved in TBST. The membranes were incubated with primary antibodies (anti-AHR from GeneTex, Inc. (Irvine, Calif.); anti-ARNT and anti AHRR from Sigma (St. Louis, Mo.); TDO2 from OriGene Technologies, Inc.; and IDO1) dissolved in 5% non-fat milk containing TBST at 4° C. overnight with gentle rocking. Following incubation, the membranes were vigorously washed with TB ST several times and then incubated with appropriate secondary antibodies, dissolved in 5% non-fat milk containing TBST at room temperature for 1 hour. Several TBST washes were carried out before ECL reagents were applied to the membranes and radiographic images were captured on X-ray films (GE). B-actin protein also was detected and served as a loading control. Quantification of Western immunoblots was carried out using NIH Image-J (Abramoff et al., Biophotonics Intl 11(7):36-42, 2004), and plotted in GraphPad-Prism software.

glioblastoma cells = experiment: Secreted kynurenine in conditioned media of glioblastoma cells (HPLC); conditions: ketamine vs vehicle (FIG. 10)
iPSC-derived neurons = experiment: Ketamine treatment of iPSC-derived neuron culture, mRNA and protein levels; format: cell-based, human
Protocol: Human induced pluripotent stem cells (iPSCs) were purchased from Axol, UK and were differentiated as per the company's protocol. The cells were differentiated for 30 days before being used for lentivirus-mediated knockdown experiments.
as §1, §2

[1] = cited from earlier work
[2] = other NMDA receptor antagonists; cited from earlier work
[3] = ketamine vs vehicle (FIGS. 8A, 8B)

Row | SMILES | protein level of IDOL (U251 glioma cells; ketamine for 24 hours vs vehicle (FIG. 9A)) | mRNA level of AHRR (U251 glioma cells; [3]) | mRNA level of IDOL (U251 glioma cells; [3]) | mRNA level of TDO2 (U251 glioma cells; [3]) | secreted KYN in cell culture conditioned media (glioblastoma cells) | mRNA level of AHRR (iPSC-derived neurons; ketamine vs vehicle (FIG. 8C)) | mRNA level of IDOL (iPSC-derived neurons; ketamine vs vehicle (FIG. 8C)) | mRNA level of TDO2 (iPSC-derived neurons; ketamine vs vehicle (FIG. 8C)) | protein level of AHRR (iPSC-derived neurons; ketamine vs vehicle (FIG. 9B)) | protein level of IDOL (iPSC-derived neurons; ketamine vs vehicle (FIG. 9B)) | protein level of TDO2 (iPSC-derived neurons; ketamine vs vehicle (FIG. 9B)) | effect on mood ([1]; severely depressed patients) | duration of effects ([1]; single infusion) | ketamine-like antidepressant effects [2]
1 | CNC1(c2ccccc2Cl)CCCCC1=O (stereo not drawn) [Ketamine] | decreased levels | Decreased levels | decreased levels | decreased levels | decreased levels | Decreased levels | decreased levels | decreased levels | Decreased levels | decreased levels | decreased levels | rapid improvement in mood | last for weeks | –
2 | C[C@]12N[C@H](Cc3ccccc31)c1ccccc12 [MK801] | – | – | – | – | – | – | – | – | – | – | – | – | – | fail to demonstrate ketamine-like antidepressant effects
3 | CC12CC3CC(C)(C1)CC(N)(C3)C2 [memantine] | – | – | – | – | – | – | – | – | – | – | – | – | – | fail to demonstrate ketamine-like antidepressant effects
